Among the data in patent US7998978B2 (Pfizer Inc., priority 2006, dated 2011) are inhibition and Ki values, retold here.

Usually inhibition stands for how much of the control response was suppressed. What is called Ki is a measure of affinity in units of concentration, obtained from inhibition or displacement. Lower therefore signals higher affinity.

SMILES strings stand for the structures.

In the first assay the target is T1, JNK1α1 (Homo sapiens, UniProt P45983).
T1 construct: catalytic domain containing amino acids 1-364 and N-terminal hexahistidine tag; hexahistidine (His6) (N); made in house; host or cells: E. coli BL21 (DE3)
T1 sequence (P45983 1-364): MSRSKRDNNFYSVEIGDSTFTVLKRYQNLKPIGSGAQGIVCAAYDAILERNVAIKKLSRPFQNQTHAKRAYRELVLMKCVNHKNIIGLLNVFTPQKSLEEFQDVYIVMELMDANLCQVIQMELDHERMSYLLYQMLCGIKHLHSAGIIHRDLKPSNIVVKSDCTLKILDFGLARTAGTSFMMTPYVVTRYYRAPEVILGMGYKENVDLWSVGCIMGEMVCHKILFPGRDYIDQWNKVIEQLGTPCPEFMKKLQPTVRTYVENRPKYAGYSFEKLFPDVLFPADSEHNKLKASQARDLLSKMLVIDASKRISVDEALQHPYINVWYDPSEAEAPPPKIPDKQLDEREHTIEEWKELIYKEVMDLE
Kind of assay: Coupled spectrophotometric (PK/LDH) JNK1α1 assay: % inhibition and Ki determination. The format is biochemical. As to conditions: @1 uM; read-out: % Inhibition JNK-1. The protocol: % Inhibition and Ki Determination
A coupled spectrophotometric assay, coupling JNK1α1 activity to the oxidation of β-NADH to NAD+ through the action of pyruvate kinase (PK) and lactic dehydrogenase (LDH), was used to determine the potency (percent inhibition at 1 or 10 μM or Ki) of compounds against JNK1α1 (Genbank Accession Number: L26318). […] The reaction was monitored by following the decrease in absorbance at 340 nm. The initial reaction rate was determined by the slope of the change in absorbance. To calculate percent inhibition the rate of the reaction in the presence of 1 or 10 μM compound was compared to the rate of the reaction with only DMSO multiplied by 100 percent. Note, the background rate of the above reaction in the presence of 10 μM PHA-00738186 was subtracted from all rates. […] Y=(−X+Eo−(Ki*(1+A/Km))+((X−Eo+(Ki*(1+A/Km)))^2+4*Eo*(Ki*(1+A/Km)))^0.5)*(Vm*A/(Km+A)/(2*Eo)) Formula: • Parameters: Eo, Ki, A, Km, Vo • Y is initial reaction velocity; • X is inhibitor concentration; • A is [ATP]; • Ki is inhibition constant; • Vm is Vmax; • Eo is total (initial) enzyme concentration; • Km is ATP Km;
The compounds were prepared in 100% DMSO at a 40× concentration. For percent inhibition experiments this would be 400 or 40 μM for 10 and 1 μM final concentration, respectively. For the Ki determination 3× serial dilutions were made starting at 4 mM (100 μM at 1×) in DMSO. A total of 11 concentrations were used for the analysis. The compounds were added to the reaction plate first. Next, a solution containing the HEPES, MgCl2, DTT, peptide substrate, NADH, PEP, PK/LDH enzyme, and JNK1α1—364nHis enzyme was added to the assay plate. The plate was incubated at room temperature for 15 minutes. Then the plate was warmed to 30° C. for 5 minutes. The reaction was initiated with the addition of ATP. The reaction was run in a plate reader at 30° C. for 20 minutes with absorbance readings made about every 10 seconds.
The column with “#” heading refers to compound number as exemplified in the Examples section. The column with “Ki” heading refers to Ki (in nM). The column with “% Inhibition” heading refers to percent inhibition of JNK-1 at 1 μM or 10 μM (in %) unless otherwise stated. ND refers to no data was taken.
Regarding `Cc1nnc(CNC(=O)c2cccc3cnc(N[C@H]4CC[C@H](O)CC4)nc23)o1` [Example 514, 2-[(trans-4-hydroxycyclohexyl)amino]-N-[(5-methyl-1,3,4-oxadiazol-2-yl)methyl]quinazoline-8-carboxamide], the inhibition at 1 µM turned out to be 11%.
Regarding `COc1ncccc1NC(=O)c1cccc2cnc(N[C@H]3CC[C@H](O)CC3)nc12` [Example 316, 2-[(trans-4-hydroxycyclohexyl)amino]-N-(2-methoxypyridin-3-yl)quinazoline-8-carboxamide], the inhibition at 1 µM is 18%.
For `CCN1CC(CNC(=O)c2cccc3cnc(N[C@H]4CC[C@H](O)CC4)nc23)OCC1=O` (stereo partly drawn) [Example 529, N-[(4-ethyl-5-oxomorpholin-2-yl)methyl]-2-[(trans-4-hydroxycyclohexyl)amino]quinazoline-8-carboxamide], the inhibition at 1 µM worked out at 16%.
The same measure, in the same setting: as for `CC(Cn1cccn1)NC(=O)c1cccc2cnc(N[C@H]3CC[C@H](O)CC3)nc12` (stereo partly drawn) [Example 482, 2-[(trans-4-hydroxycyclohexyl)amino]-N-[1-methyl-2-(1H-pyrazol-1-yl)ethyl]quinazoline-8-carboxamide], the figure is 13%; as for `CC(C)Nc1ncc2ccc(C(=O)N[C@@H](C)CO)cc2n1` [Example 434, N-[(1S)-2-hydroxy-1-methylethyl]-2-(isopropylamino)quinazoline-7-carboxamide], 15%.
On the same count and under the same terms, as for `Cc1cc(NC(=O)c2cccc3cnc(N[C@H]4CC[C@H](O)CC4)nc23)n(-c2ccccn2)n1` [Example 325, 2-[(trans-4-hydroxycyclohexyl)amino]-N-(3-methyl-1-pyridin-2-yl-1H-pyrazol-5-yl)quinazoline-8-carboxamide], the figure is 9%.

Still in this assay, the particulars now being: @10 uM; read-out: % Inhibition JNK-1.
`Cn1ccnc1-c1ccc(CNc2cc3cc(-c4cn[nH]c4)ccc3cn2)cc1` [Example 230, N-[4-(1-methyl-1H-imidazol-2-yl)benzyl]-6-(1H-pyrazol-4-yl)isoquinolin-3-amine]: the inhibition at 10 µM was determined as 43%.
On the same count and under the same terms, as for `CCN(CC)CCOc1cccc2cnc(N[C@H]3CC[C@H](O)CC3)nc12` [Example 261, trans-4-({8-[2-(diethylamino)ethoxy]quinazolin-2-yl}amino)cyclohexanol], the figure is 42%; as for `CS(=O)(=O)Nc1ccc(CNc2cc3cc(-c4cn[nH]c4)ccc3cn2)cc1` [Example 237, N-[4-({[6-(1H-pyrazol-4-yl)isoquinolin-3-yl]amino}methyl)phenyl]methanesulfon-amide], 41%.

The assay is the same for the next values; noted with them: JNK-1.
Consider `O=C(NCCCn1cccn1)c1ccc2cnc(N[C@H]3CC[C@H](O)CC3)nc2c1` [Example 339, 2-[(trans-4-hydroxycyclohexyl)amino]-N-[3-(1H-pyrazol-1-yl)propyl]quinazolin-7-carboxamide], for which affinity was put at a Ki of 801 nM.
In the case of `O[C@H]1CC[C@H](Nc2ncc3ccc(OCCN4CCOCC4)cc3n2)CC1` [Example 154, trans-4-{[7-(2-morpholin-4-ylethoxy)quinazolin-2-yl]amino}cyclohexanol], affinity was put at a Ki of 403 nM.
`CCS(=O)(=O)N[C@H]1CC[C@H](Nc2ncc3cccc(OC4CCOC4)c3n2)CC1` (stereo partly drawn) [Example 188, N-(trans-4-{[8-(tetrahydrofuran-3-yloxy)quinazolin-2-yl]amino}cyclohexyl)ethanesulfonamide]: the Ki amounted to 374 nM.
On the same count and under the same terms, as for `CN(C)c1ncccc1NC(=O)c1ccc2cnc(N[C@H]3CC[C@H](O)CC3)nc2c1` [Example 331, N-[2-(dimethylamino)pyridin-3-yl]-2-[(trans-4-hydroxycyclohexyl)amino]quinazoline-7-carboxamide], the figure is 410 nM; as for `c1cc2cnc(NC3CCOCC3)cc2cc1-c1cn[nH]c1` [Example 218, 6-(1H-pyrazol-4-yl)-N-(tetrahydro-2H-pyran-4-yl)isoquinolin-3-amine], 843 nM; as for `CC(C)Nc1ncc2cccc(OC3CCOC3)c2n1` (stereo not shown) [Example 172, N-isopropyl-8-(tetrahydrofuran-3-yloxy)quinazolin-2-amine], 3570 nM.
As for `COc1ccc2[nH]c(C)c(CC(=O)Nc3cc4cc(-c5cn[nH]c5)ccc4cn3)c2c1` [Example 2, 2-(5-methoxy-2-methyl-1H-indol-3-yl)-N-[6-(1H-pyrazol-4-yl)isoquinolin-3-yl]acetamide], affinity was put at a Ki of 77 nM.
With `CCNC(=O)c1cccc2cnc(N[C@H]3CC[C@H](O)CC3)nc12` [Example 118, N-ethyl-2-[(trans-4-hydroxycyclohexyl)amino]quinazoline-8-carboxamide], the Ki is 222 nM.
In turn, `COc1ccc(NC(=O)c2ccc3cnc(N[C@H]4CC[C@H](O)CC4)nc3c2)cn1` [Example 349, 2-[(trans-4-hydroxycyclohexyl)amino]-N-(6-methoxypyridin-3-yl)quinazoline-7-carboxamide] yielded an inhibition constant Ki of 1010 nM.
Take `O=C(N[C@@H]1COC[C@H]1O)c1ccc2cnc(N[C@H]3CC[C@H](O)CC3)nc2c1` [Example 404, 2-[(trans-4-hydroxycyclohexyl)amino]-N-[(3R,4S)-4-hydroxytetrahydrofuran-3-yl]quinazoline-7-carboxamide]: the inhibition constant (Ki) is 667 nM.
Turning to `Cc1n[nH]c(C)c1CNC(=O)c1cccc2cnc(N[C@H]3CC[C@H](O)CC3)nc12` [Example 452, N-[(3,5-dimethyl-1H-pyrazol-4-yl)methyl]-2-[(trans-4-hydroxycyclohexyl)amino]quinazoline-8-carboxamide], the affinity, expressed as Ki, was 166 nM.
Molecule `O=C(CNC(=O)c1ccccc1)Nc1cc2cc(-c3cn[nH]c3)ccc2cn1` [Example 9, N-(2-oxo-2-{[6-(1H-pyrazol-4-yl)isoquinolin-3-yl]amino)ethyl)benzamide] had a Ki of 17 nM.
`O=C(CCc1ccc(C(F)(F)F)cc1)Nc1cc2cc(-c3cn[nH]c3)ccc2cn1` [Example 39, N-[6-(1H-pyrazol-4-yl)isoquinolin-3-yl]-3-[4-(trifluoromethyl)phenyl]propanamide]: the inhibition constant Ki came to 7 nM.
Molecule `O=C(Nc1cc2cc(-c3cn[nH]c3)ccc2cn1)C1NCc2ccccc21` (stereo not shown) [Example 14, N-[6-(1H-pyrazol-4-yl)isoquinolin-3-yl]isoindoline-1-carboxamide] showed an inhibitory constant (Ki) above 50 nM.
`O=C(NCc1ccccn1)c1ccc2cnc(N[C@H]3CC[C@H](O)CC3)nc2c1` [Example 86, 2-[(trans-4-hydroxycyclohexyl)amino]-N-(pyridin-2-ylmethyl)quinazoline-7-carboxamide] returned an inhibition constant (Ki) of 220 nM.
Molecule `CN(C)C(=O)c1ccc2cnc(N[C@H]3CC[C@H](O)CC3)nc2c1` [Example 59, 2-[(trans-4-hydroxycyclohexyl)amino]-N,N-dimethylquinazoline-7-carboxamide] had a Ki of 4340 nM.
`O=C(NCC1CCCOC1)c1ccc2cnc(N[C@H]3CC[C@H](O)CC3)nc2c1` (stereo partly drawn) [Example 92, 2-[(trans-4-hydroxycyclohexyl)amino]-N-(tetrahydro-2H-pyran-3-ylmethyl)quinazoline-7-carboxamide] had an inhibition constant Ki of 379 nM.
Consider `CC(C)C[C@@H](CO)NC(=O)c1ccc2cnc(N[C@H]3CC[C@H](O)CC3)nc2c1` [Example 375, 2-[(trans-4-hydroxycyclohexyl)amino]-N-[(1S)-1-(hydroxymethyl)-3-methylbutyl]quinazoiine-7-carboxamide], for which affinity was put at a Ki of 107 nM.
On to `NC[C@@H](NC(=O)c1ccc2cnc(N[C@H]3CC[C@H](O)CC3)nc2c1)c1ccccc1` [Example 101, N-[(1S)-2-amino-1-phenylethyl]-2-[(trans-4-hydroxycyclohexyl)amino]quinazoline-7-carboxamide], for which the Ki worked out at 94 nM.
In turn, `CC(C)C(=O)N[C@H]1CC[C@H](Nc2ncc3cccc(OC4CCOC4)c3n2)CC1` (stereo partly drawn) [Example 186, 2-methyl-N-(trans-4-{[8-(tetrahydrofuran-3-yloxy)quinazolin-2-yl]amino)cyclohexyl)propanamide] came in with an inhibition constant Ki of 607 nM.
The same measure, in the same setting: as for `O[C@H]1CC[C@H](Nc2ncc3cccc(OC4CCOC4)c3n2)CC1` (stereo partly drawn) [Example 171, trans-4-{[8-(tetrahydrofuran-3-yloxy)quinazolin-2-yl]amino}cyclohexanol], the figure is 483 nM; as for `FC1(F)CCC(Nc2ncc3cccc(OC4CCOC4)c3n2)CC1` (stereo not shown) [Example 174, N-(4,4-difluorocyclohexyl)-8-(tetrahydrofuran-3-yloxy)quinazolin-2-amine], 999 nM.
